The compounds below were run against T1, COX-1 (ovine) (Ovis aries, UniProt P05979) (assay: 12-HHT formation from arachidonic acid, HPLC).
T1 sequence (P05979 25-600): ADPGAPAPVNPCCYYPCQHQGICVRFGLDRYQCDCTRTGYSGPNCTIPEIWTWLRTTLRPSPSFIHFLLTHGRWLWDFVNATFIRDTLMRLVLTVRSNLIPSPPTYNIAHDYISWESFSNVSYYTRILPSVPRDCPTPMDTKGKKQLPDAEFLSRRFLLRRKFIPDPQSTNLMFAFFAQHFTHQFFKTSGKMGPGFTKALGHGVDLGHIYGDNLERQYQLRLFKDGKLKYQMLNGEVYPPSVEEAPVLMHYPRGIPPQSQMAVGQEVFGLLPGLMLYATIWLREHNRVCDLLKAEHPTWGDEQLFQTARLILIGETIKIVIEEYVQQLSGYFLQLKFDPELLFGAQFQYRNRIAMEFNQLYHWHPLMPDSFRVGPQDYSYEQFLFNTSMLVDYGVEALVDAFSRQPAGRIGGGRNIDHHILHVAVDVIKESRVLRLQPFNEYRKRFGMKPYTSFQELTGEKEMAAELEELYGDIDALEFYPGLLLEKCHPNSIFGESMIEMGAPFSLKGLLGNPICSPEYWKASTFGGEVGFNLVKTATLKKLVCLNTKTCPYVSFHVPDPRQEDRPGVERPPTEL
Type: biochemical

IC50 [µM] | SMILES
> 30 | CCCCCC(=O)Cc1cc(O)cc2c1C(=O)Oc1cc(O)c(C(=O)O)c(CCCCC)c1O2 [compound 2, physodic acid]
> 30 | CCCCCc1cc(OC(=O)c2c(O)cc(OC)cc2CCCCC)cc(O)c1C(=O)O [compound 8, perlatolic acid]
> 30 | CCCCCC(=O)Cc1cc(O)cc(O)c1C(=O)Oc1cc(O)c(C(=O)O)c(CCCCC)c1 [compound 9, olivetoric acid]

From paper PMC3524419 (ChemMedChem, 2012)
